US20240124483A1, “Methods for the Treatment of Fibrotic Disease” (SHY Therapeutics, LLC, priority 2021, published 2024)
Read-outs that look alike come from different tables or passages of the source.

How the values were obtained:
[1] = system: MiaPaca2; experiment: MiaPaca2 proliferation; format: cell-based; conditions: Homo sapiens, MIA PaCa-2; for inhibition at 10 µM: read-out: % inh of proliferation in MiaPaca2
[2] = system: Smad2/3 phosphorylation; experiment: Phospho-Smad2/3 Inhibition Assay in Panc-1 (western blot); format: cell-based; conditions: Homo sapiens; 10 μM, 3 hours; PANC-1 stimulated with 10 ng/ml TGF-b1 for 1 hour; read-out: % inh of Smad2/3 phosphorylation in PANC-1
Description: Cell lines: Human tumor-derived pancreatic cancer cell line Panc-1 and mouse muscle myoblast C2C12 were purchased from American Type Culture Collection and grown in complete DMEM-High Glucose, supplemented with penicillin (100 U/mL), streptomycin (100 μg/mL), and 10% heat-inactivated FBS at 37° C. in a humidified incubator with 5% CO2.
Method: Cells were plated at 350000 cells/well density in a 12-well plate, allowed 3 hours to adhere to the plate, then starved in the appropriate medium in the presence of 0.5% FBS overnight. The small molecules to be tested were added to the cells in the final concentration of 10 μM in the presence of 0.3% DMSO for 3 hours incubation at 37° C. For IC50 value determination, serial dilutions of compounds were added to cells under the same conditions. Next, Panc-1 cells were stimulated with 10 ng/ml TGF-b1 for 1 hour, and C2C12 cells were stimulated with 10 ng/ml TGF-b1 for 20 minutes (recombinant human TGF-b1, R&D Systems). After stimulation cells were lysed with lysis buffer containing 1% Triton X-100, EDTA, and Halt™ Protease & Phosphatase Inhibitor Cocktail (Thermo Scientific). Protein concentration was assessed by BCA protein assay (Thermo Scientific). Phosphorylation level of Smad2/Smad3 was determined by western blot.
Western blot protocol: Equal amounts of protein (15-50 μg) were separated by SDS-PAGE and transferred to nitrocellulose membranes (Invitrogen by Thermo Fisher Scientific). The membrane was stained with Ponceau S Stain (Boston BioProducts) to verify uniform protein loading. Membranes were blocked with 10% milk and phosphorylation levels of Smad2/Smad3 were assessed by incubating overnight at 4° C. with the following antibodies: Phospho-Smad2 (Ser465/467) and Phosph-Smad3 (Ser423/425), both from Cell Signaling Technology. Then the membranes were incubated with HRP-conjugated secondary antibody (Jackson Immunoresearch, West Grove, PA). Bands were incubated in Amersham ECL Prime Western Blotting Detection Reagent (GE Healthcare) and visualized using the ChemiDoc MP imaging system (Bio-Rad).

[3] = biological target: KRas Q61H mutant (Homo sapiens (Human), UniProt P01116, Q61H); experiment: Ras GTP Binding Domain Inhibition Assay, KRas Q61H mutant; conditions: 20 μM
Chain of KRas Q61H mutant (P01116 other isoform, or with tags, fused parts or gaps Q61H): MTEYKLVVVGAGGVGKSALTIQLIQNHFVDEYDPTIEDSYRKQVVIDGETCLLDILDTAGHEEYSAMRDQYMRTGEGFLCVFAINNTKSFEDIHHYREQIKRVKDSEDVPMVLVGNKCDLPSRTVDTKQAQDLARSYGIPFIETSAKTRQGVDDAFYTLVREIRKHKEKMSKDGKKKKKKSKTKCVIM
Description: (§1) A Ras Superfamily Activity Assay (as disclosed in International Application No. PCT/US2018/038613, filed Jun. 20, 2018, which is incorporated by reference in its entirety) was used as a specific assay to evaluate compounds against the following for the following Ras Superfamily proteins: KRas wild type, KRas Q61H mutant, KRas G12C mutant, KRas G12D mutant, Rac-1, and Rho-A.
(§2) Buffer-I: • 25 mM Tris-HCl, pH 7.4 • 27 mM KCl • 137 mM NaCl • 1 mM MgCl2 • 1 mM DTT
(§3) Buffer-II: • 50 mM Tris-HCl, pH 7.0 • 1 mM MgCl2 • 1 mM DTT
(§4) The small GTPases proteins: KRas wild type. KRas Q61H mutant, KRas G12C mutant, KRas G12D mutants, Rac-1, and Rho-A were expressed as His-tagged proteins. In addition, the Guanosine nucleotide Exchange Factor (GEF) Sos protein (residues 556-1049) was expressed as a His-tagged protein. In cells, the guanine nucleotide exchange factor Sos protein promotes activation of Ras proteins by stimulating an exchange of GDP for GTP. The inclusion of Sos to the Ras GTP binding domain inhibition assay may be considered as an alternative representation of physiological cellular conditions for evaluating the inhibitory activity of some of the tested small molecules.
(§5) For the assay, all purified small GTPases proteins were diluted in Buffer-I or Buffer-II to a final concentration of 10-30 μg/mL. 200 μL of each diluted protein was added to a nickel-coated 96-well plate and incubated overnight at 4° C. Then the protein solution was discarded and 200 μL of Buffer-I or Buffer-II was added to each well in the presence of 1% DMSO. Compounds to be tested were added to the protein-coated wells at final concentration of 20 μM, and incubated for 3 hours at room temperature with and without 10-30 μg/mL of Sos added to the final hour of the incubation. When performing IC50 measurements a serial dilution of all tested concentrations was added. Then Cy3-GTP or Cy5-GTP was added to each well to a final concentration of 100 nM. The labeled GTP was incubated for 45 minutes at room temperature. Following GTP incubation, wells were washed 3× in Buffer-I or Buffer-II and 200 μL of Buffer-I or Buffer-II was added to each well. Following washes, the amount of bound labeled-GTP was measured using a SpectraMax M3 (Molecular Devices).

[4] = biological target: KRas G12C mutant (Homo sapiens (Human), UniProt P01116, G12C); experiment: Ras GTP Binding Domain Inhibition Assay, KRas G12C mutant
Chain of KRas G12C mutant (P01116 other isoform, or with tags, fused parts or gaps G12C): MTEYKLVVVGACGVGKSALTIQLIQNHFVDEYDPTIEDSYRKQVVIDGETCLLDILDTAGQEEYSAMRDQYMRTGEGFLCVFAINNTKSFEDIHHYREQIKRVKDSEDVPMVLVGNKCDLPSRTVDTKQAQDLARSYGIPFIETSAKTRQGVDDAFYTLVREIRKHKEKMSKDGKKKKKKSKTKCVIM
Description: as §1, §2, §3, §4, §5

[5] = biological target: Rac-1 (Homo sapiens (Human), UniProt P63000); experiment: Ras GTP Binding Domain Inhibition Assay, Rac-1; conditions: without SOS, read-out: Rac-1: % inh.
Description: as §1, §2, §3, §4, §5

[6] = + SOS, read-out: KRas Q61H mutant + SOS: % inh.
[7] = without SOS, read-out: KRas Q61H mutant: % inh.
[8] = + SOS, read-out: KRas G12C mutant + SOS: % inh.
[9] = without SOS, read-out: KRas G12C mutant: % inh.

| Compound | IC50 [1] | inhibition at 10 µM [1] | inhibition at 10 µM [2] | inhibition at 20 µM [3, 6] | inhibition at 20 µM [3, 7] | inhibition at 20 µM [4, 8] | inhibition at 20 µM [4, 9] | inhibition at 20 µM [5] |
| --- | --- | --- | --- | --- | --- | --- | --- | --- |
| COC1CCCN(c2nc(-c3nccn3C)nc3sc(-c4ccn(C(C)C)n4)c(C)c23)C1 (racemic) [Compound 14, rac-6-(1-Isopropyl-1H-pyrazol-3-yl)-4-(3-methoxypiperidin-1-yl)-5-methyl-2-(1-methyl-1H-imidazol-2-yl)thieno[2,3-d]pyrimidine] | 5 to 10 µM | 76 to 100% | 46 to 75% | 76 to 100% | 26 to 45% | 76 to 100% | 26 to 45% | 46 to 75% |
| COCC1CN(c2nc(-c3nccn3C)nc3sc(-c4ccn(C(C)C)n4)c(C)c23)CCO1 (racemic) [Compound 15, 4-(6-(1-Isopropyl-1H-pyrazol-3-yl)-5-methyl-2-(1-methyl-1H-imidazol-2-yl)thieno[2,3-d]pyrimidin-4-yl)-2-(methoxymethyl)morpholine] | 5 to 10 µM | 46 to 75% | 26 to 45% | 76 to 100% | 76 to 100% | 76 to 100% | 46 to 75% | 76 to 100% |
| COCCO[C@H]1CC[C@@H](Nc2nc(-c3nccn3C)nc3sc(-c4ccn(C(C)C)n4)c(C)c23)C1 (racemic) [Compound 20, rac-6-(1-Isopropyl-1H-pyrazol-3-yl)-N-((1R,3S)-3-(2-methoxyethoxy)cyclopentyl)-5-methyl-2-(1-methyl-1H-imidazol-2-yl)thieno[2,3-d]pyrimidin-4-amine] | 1 to 4.99 µM | 76 to 100% | 1 to 25% | 76 to 100% | 46 to 75% | 76 to 100% | 76 to 100% | 46 to 75% |
| Cc1c(-c2ccn(C(C)C)n2)sc2nc(-c3nccn3C)nc(NCC3COCCN3C)c12 (racemic) [Compound 24, rac-6-(1-Isopropyl-1H-pyrazol-3-yl)-5-methyl-2-(1-methyl-1H-imidazol-2-yl)-N-((4-methylmorpholin-3-yl)methyl)thieno[2,3-d]pyrimidin-4-amine] | 5 to 10 µM | 76 to 100% | 0% | 76 to 100% | 46 to 75% | 76 to 100% | 46 to 75% | 76 to 100% |
| Cc1c(-c2ccn(C(C)C)n2)sc2nc(-c3nccn3C)nc(NCC3CN(C)CCO3)c12 (racemic) [Compound 25, rac-6-(1-Isopropyl-1H-pyrazol-3-yl)-5-methyl-2-(1-methyl-1H-imidazol-2-yl)-N-((4-methylmorpholin-2-yl)methyl)thieno[2,3-d]pyrimidin-4-amine] | 5 to 10 µM | 46 to 75% | 0% | 76 to 100% | 76 to 100% | 76 to 100% | 76 to 100% | 76 to 100% |
| Cc1c(-c2ccn(C(C)C)n2)sc2nc(-c3nccn3C)nc(NCC3CCCO3)c12 (racemic) [Compound 26, rac-6-(1-Isopropyl-1H-pyrazol-3-yl)-5-methyl-2-(1-methyl-1H-imidazol-2-yl)-N-((tetrahydrofuran-2-yl)methyl)thieno[2,3-d]pyrimidin-4-amine] | > 10 µM | 46 to 75% | 0% | 76 to 100% | 76 to 100% | 76 to 100% | 76 to 100% | 46 to 75% |
| COCC1(OC)CCN(c2nc(-c3nccn3C)nc3sc(-c4ccn(C(C)C)n4)c(C)c23)C1 (racemic) [Compound 27, rac-6-(1-Isopropyl-1H-pyrazol-3-yl)-4-(3-methoxy-3-(methoxymethyl)pyrrolidin-1-yl)-5-methyl-2-(1-methyl-1H-imidazol-2-yl)thieno[2,3-d]pyrimidine] | 5 to 10 µM | 76 to 100% | 0% | 76 to 100% | 46 to 75% | 76 to 100% | 76 to 100% | 1 to 25% |
| COCCn1ccc(-c2sc3nc(-c4nccn4C)nc(NC[C@H]4CC[C@H]4COC)c3c2C)n1 (racemic) [Compound 38, rac-6-(1-(2-Methoxyethyl)-1H-pyrazol-3-yl)-N-(((1S,2R)-2-(methoxymethyl)cyclobutyl)methyl)-5-methyl-2-(1-methyl-1H-imidazol-2-yl)thieno[2,3-d]pyrimidin-4-amine] | 5 to 10 µM | 76 to 100% | 46 to 75% | 76 to 100% | 46 to 75% | 76 to 100% | 46 to 75% | 1 to 25% |
| COCCn1ccc(-c2sc3nc(-c4nccn4C)nc(N[C@@H]4CC[C@H](OC)C4)c3c2C)n1 (racemic) [Compound 39, rac-N-((1R,3S)-3-Methoxycyclopentyl)-6-(1-(2-methoxyethyl)-1H-pyrazol-3-yl)-5-methyl-2-(1-methyl-1H-imidazol-2-yl)thieno[2,3-d]pyrimidin-4-amine] | 5 to 10 µM | 76 to 100% | 0% | 76 to 100% | 76 to 100% | 76 to 100% | 76 to 100% | 26 to 45% |
| COc1cccc(-c2sc3nc(-c4nccn4C)nc(N[C@@H]4CC[C@@H](OC)C4)c3c2-c2ccccc2)c1F (racemic) [Compound 41, 6-(2-Fluoro-3-methoxyphenyl)-N-((1R,3R)-3-methoxycyclopentyl)-2-(1-methyl-1H-imidazol-2-yl)-5-phenylthieno[2,3-d]pyrimidin-4-amine] | 1 to 4.99 µM | 76 to 100% | 76 to 100% | 76 to 100% | 26 to 45% | 76 to 100% | 26 to 45% | 1 to 25% |
| COc1cccc(-c2sc3nc(-c4nccn4C)nc(N[C@@H]4CC[C@@H](OC)C4)c3c2C)c1F (racemic) [Compound 43, rac-6-(2-Fluoro-3-methoxyphenyl)-N-((1R,3R)-3-methoxycyclopentyl)-5-methyl-2-(1-methyl-1H-imidazol-2-yl)thieno[2,3-d]pyrimidin-4-amine] | 5 to 10 µM | 46 to 75% | 76 to 100% | 76 to 100% | 26 to 45% | 76 to 100% | 26 to 45% | 1 to 25% |
